From patent publication US10494384B2, “Urea peptoid boric acid compound, pharmaceutical composition thereof, preparation method therefor, and uses thereof” (Peking University, priority 2015, dated 2019)

Tests used:
[1] = target: T1, 20S proteasome extracted from rat liver (CT-L) (Rattus norvegicus, UniProt P18421+P28075); assay: inhibition of 20S proteasome, CT-L activity (fluorescent peptide); assay type: biochemical; details: rat liver 20S proteasome, 37° C., 1 h, read-out: inhibition rates (%) CT-L
T1 construct: 20S proteasome extracted from rat liver; from tissue; host or cells: rat liver
Description: (§1) 1 μg of 20S proteasome extracted from rat liver was incubated with a 100 μL solution containing various concentrations of the present compounds, 50 μM fluorescent peptides and 20 mM Tris-HCl at 37° C. for 1 h, respectively. […] 0.1% DMSO was used as a solvent control. Compared with the fluorescence of solvent control, an inhibition rate or IC50 value was calculated.

[2] = target: T2, 20S proteasome extracted from rat liver (PGPH) (Rattus norvegicus, UniProt P28073+Q9JHW0); assay: inhibition of 20S proteasome, PGPH activity (fluorescent peptide); assay type: biochemical; details: rat liver 20S proteasome, 37° C., 1 h, read-out: inhibition rates (%) PGPH
T2 construct: 20S proteasome extracted from rat liver; from tissue; host or cells: rat liver
Description: as §1

[3] = target: T3, 20S proteasome extracted from rat liver (T-L) (Rattus norvegicus, UniProt P40112+Q9JHW0); assay: inhibition of 20S proteasome, T-L activity (fluorescent peptide); assay type: biochemical; details: rat liver 20S proteasome, 37° C., 1 h, read-out: inhibition rates (%) T-L
T3 construct: 20S proteasome extracted from rat liver; from tissue; host or cells: rat liver
Description: as §1

[4] = system: Hela, human cervical carcinoma; assay: preliminary anti-tumor screening in vitro, MTT method; assay type: cell-based; details: read-out: inhibition rates (%) Hela
Description: (§2) The test methods used in this test example are routine methods for anti-tumor activities test in pharmaceutical area, for example, referring to the following reference: (J. Immunol Method, 1983, 65, 55).
(§3) Test models: A: MTT method (Hela, human cervical carcinoma); B: SRB method (BGC-823, […]); C: SRB method (MCF-7, breast cancer); D: SRB method (A549, human lung cancer); E: SRB method (PC3M1E8, prostate cancer).
(§4) Inhibition rates of the compounds were measured under concentrations of 0.1 μM, 1 μM or 10 μM.

A549, human lung cancer = assay: preliminary anti-tumor screening in vitro, SRB method; assay type: cell-based; details: read-out: inhibition rates (%) A549
Description: as §2, §3, §4

BGC-823, liver cancer = assay: as above; assay type: cell-based; details: Homo sapiens, read-out: inhibition rates (%) BGC-823
Description: as §2, §3, §4

MCF-7, breast cancer = assay: as above; assay type: cell-based; details: Homo sapiens, read-out: inhibition rates (%) MCF-7; for inhibition at 0.1 µM: MCF7, 0.1 μM; for inhibition at 1 µM: MCF7, 1 μM; for inhibition at 10 µM: MCF7, 10 μM
Description: as §2, §3, §4

inhibition at 0.2 µM [1]	inhibition at 2 µM [1]	inhibition at 20 µM [1]	inhibition at 0.2 µM [2]	inhibition at 2 µM [2]	inhibition at 20 µM [2]	inhibition at 0.2 µM [3]	inhibition at 2 µM [3]	inhibition at 20 µM [3]	SMILES	inhibition at 0.1 µM [4]	inhibition at 1 µM [4]	inhibition at 10 µM [4]	inhibition at 0.1 µM (A549, human lung cancer)	inhibition at 1 µM (A549, human lung cancer)	inhibition at 10 µM (A549, human lung cancer)	inhibition at 0.1 µM (BGC-823, liver cancer)	inhibition at 1 µM (BGC-823, liver cancer)	inhibition at 10 µM (BGC-823, liver cancer)	inhibition at 0.1 µM (MCF-7, breast cancer)	inhibition at 1 µM (MCF-7, breast cancer)	further results
5.79%	52.8%	92.5%	12.8%	32.6%	81%	-8.06%	-5.63%	25.2%	CC(C)C[C@H](NC(=O)N[C@@H](CC(C)C)C(=O)N[C@@H](CC(C)C)C(=O)Nc1cnccn1)B(O)O [Example 11, N-L-leucine borate-N′-(pyrazin-2-ylcarbamoyl)-L-leucyl-L-leucine-urea]	2.45%	6.1%	19.2%	-4.49%	0.81%	26.6%	6.32%	4.58%	13.1%	4.81%	7.23%	inhibition at 10 µM (MCF-7, breast cancer): 16.1%
63.3%	93.4%	95.8%	9.76%	73.2%	96.7%	-7.93%	34.7%	67.8%	CC(C)C[C@H](NC(=O)N[C@@H](Cc1ccccc1)C(=O)N[C@@H](CC(C)C)C(=O)Nc1cnccn1)B(O)O [Example 12, N-L-leucine borate-N′-(pyrazin-2-ylcarbamoyl)-L-leucyl-L-phenylalanine-urea]	12%	35%	46%	1.55%	45.5%	69.7%	6.01%	36.3%	50.2%	1.77%	26.3%	inhibition at 10 µM (MCF-7, breast cancer): 50.8%
45.4%	91.3%	95.4%	5.28%	53.4%	96.8%	-3.11%	13.8%	49.4%	CC(C)C[C@H](NC(=O)N[C@@H](Cc1ccccc1)C(=O)N[C@@H](CC(C)C)C(=O)Nc1cnccn1)B1OC(C)(C)C(C)(C)O1 [Example 13, N-L-leucine borate pinacol ester-N′-(pyrazin-2-ylcarbamoyl)-L-leucyl-L-phenylalanine-urea]	7.02%	20.2%	37.7%	-9.11%	23.5%	50.5%	3.66%	17.8%	40%	-3.69%	8.39%	inhibition at 10 µM (MCF-7, breast cancer): 20%
-14.6%	86.6%	94.5%	-14.4%	-2.93%	92.4%	-2.89%	12.3%	62.2%	CC(C)C[C@H](NC(=O)[C@H](Cc1ccccc1)NC(=O)Nc1cccc(OCc2ccccc2)c1)B(O)O [Example 16, N-L-phenylalanyl-L-leucine borate-N′-(3-benzyloxy-phenylamine)-urea]	9.91%	34.1%	39.6%	5%	36.2%	65%	6.01%	34%	48.7%	6.62%	27.2%	inhibition at 10 µM (MCF-7, breast cancer): 51.4%
10.5%	87.3%	95.8%	3.75%	8.57%	94.5%	-3.77%	10.5%	57.3%	CC(C)C[C@H](NC(=O)[C@H](Cc1ccccc1)NC(=O)Nc1cnccn1)B(O)O [Example 17, N-L-phenylalanyl-L-leucine borate-N′-(pyrazin-2-ylamine)-urea]	12.1%	34.6%	51.5%	5.46%	40.9%	66%	7.89%	27.1%	52.7%	8.29%	26.2%	inhibition at 10 µM (MCF-7, breast cancer): 37.6%
47.3%	90.9%	95.6%	8.58%	62.5%	96.9%	0.355%	29.3%	62%	CC(C)C[C@H](NC(=O)CNC(=O)Nc1cccc(OCc2ccccc2)c1)B(O)O [Example 21, N-glycyl-L-leucine borate-N′-(3-benzyloxy-phenylamine)-urea]	9.87%	12.9%	29.9%	7.42%	25.2%	41.4%	0.38%	2.21%	23.1%	5.41%	9.64%	inhibition at 10 µM (MCF-7, breast cancer): 24.2%
62%	89.7%	93.3%	10.1%	7.17%	5.29%	-3.95%	28.3%	53.1%	CC(C)C[C@H](NC(=O)CNC(=O)Nc1cc(Cl)ccc1Cl)B(O)O [Example 22, N-glycyl-L-leucine borate-N′-(2,5-dichloro-phenylamine)-urea]	8.66%	19.7%	43.4%	1.88%	28.3%	65.6%	2.04%	9.01%	44.5%	7.17%	12.7%	inhibition at 10 µM (MCF-7, breast cancer): 42.2%
49.5%	91%	94.2%	-13.7%	-20.5%	-20.3%	-0.748%	47.2%	90.5%	CC(C)C[C@H](NC(=O)[C@H](Cc1ccccc1)NC(=O)[C@H](Cc1ccccc1)NC(=O)Nc1cccc(OCc2ccccc2)c1)B(O)O [Example 23, N-L-phenylalanyl-L-phenylalanyl-L-leucine borate-N′-(3-benzyloxy-phenylamine)-urea]	17.4%	42.5%	75.7%	32.7%	68.8%	81.3%	43.2%	42.7%	81.6%	23.7%	56%	inhibition at 10 µM (MCF-7, breast cancer): 73%
84.6%	95.7%	97.4%	-21.8%	-24.7%	-24.2%	-0.926%	43.5%	90.2%	CC(C)C[C@H](NC(=O)[C@H](Cc1ccccc1)NC(=O)N[C@@H](Cc1ccccc1)C(=O)Nc1cnccn1)B(O)O [Example 24, N-L-phenylalanyl-L-leucine borate-N′-(pyrazin-2-ylcarbamoyl)-L-phenylalanine-urea]	24.7%	45.3%	48.6%	29.5%	61.5%	70.2%	36.3%	45.6%	51.1%	19.7%	33.3%	inhibition at 10 µM (MCF-7, breast cancer): 45.1%
